Laboratory results taken from patent publication US6995150B2, “Pharmaceutical compositions and uses for androst-5-ene-3β, 17β-diol” (Endorecherche, Inc., priority 1998, dated 2006).
Entries after “also recorded” stand apart in the source; their conditions may differ.

Key:
[1] = tested on: orchiectomized rats; assay: Prostate and seminal vesicle weight in orchiectomized rats, subcutaneous administration; type: in vivo, rat; settings: ORCH rats; for ED50 of maximal effect on prostate weight: half of each compound's own maximal effect
Procedure: (§1) Intact animals are used as additional controls.
as §1
(§2) Male and female Sprague-Dawley rats [Crl: CD (SD)Br] weighing 225-250 g and 175-200 g, respectively, were obtained from Charles River Canada Inc. (St-Constant, Québec) and housed 2 per cage under a regimen of 14 h of light/da, (lights on at 07:15 h). Animals received Purina rat chow and water ad libitum. The animal studies were conducted to the “Guideline for Care and use of Experimental Animals”.
(§3) The animals were randomly divided into the indicated groups (8 and 10 rats per group for subcutaneous and topical administration, respectively). The animals of the appropriate groups were bilaterally ovariectomized (OVX) or orchiectomized (ORCH) under ether anesthesia while other rats were used as intact controls.
(§4) Seven days after starting treatment or approximately 12 h after last administration of the steroid, the animals were killed by decapitation. Blood samples were collected individually and serum was frozen at −20° C. until assayed. Uteri, ovaries, ventral prostates, dorsal prostates and seminal vesicles were immediately removed, freed from connective and adipose tissue, weighed, frozen in liquid nitrogen, and stored at −80° C. until assayed. Three rats from the indicated treatment groups were perfused with paraformaldehyde for in situ hybridization.

[2] = tested on: ovariectomized rats; assay: Uterine weight in ovariectomized rats, percutaneous administration twice daily for 7 days; type: in vivo, rat; settings: for effect on uterine weight: percutaneous; for maximal reversal of the inhibitory effect of ovariectomy on uterine weight: 100 mg percutaneous twice daily, 7 days
Procedure: (§5) Intact animals are used as additional controls. The compounds were dissolved in 50% ethanol-50% propylene glycol and were administered in 0.1 ml on the dorsal skin area (2 cm×2 cm).
as §2, §3, §4

[3] = tested on: ovariectomized rats; assay: Uterine weight in ovariectomized rats, subcutaneous administration twice daily for 7 days; type: in vivo, rat; settings: for dose giving half-maximal stimulation of uterine weight: OVX rats
Procedure: as §1, §2, §3, §4

[4] = Serum steroid concentrations (DHEA, 5-DIOL, 4-dione, testosterone, DHT) in ovariectomized rats, percutaneous administration; settings: for concentration at 12 h: female, Sprague-Dawley, rat, in vivo; for serum levels of 5-DIOL, 5-DIOL versus DHEA: higher doses
Procedure: as §5, §5, §5
Intact animals are used as additional controls. The compounds were dissolved in 50% ethanol-50% propylene glycol and were administered in 0.1 ml on the dorsal skin in area (2 cm×2 cm).
as §5, §2, §3, §4
Steroid extraction, Ethanol (5 ml) was added to 1 ml serum and centrifugation at 2000×g was preformed for 15 min. The resulting pellet was further extracted with 2 ml ethanol and, after a second centrifugation at 2000×g for 15 min, the two supernatants were combined. The suspension was recentrifuged as described above and the supernatant was decanted and combined with the previously obtained ethanol extracts. The organic solvent was then evaporated under nitrogen and the residue was dissolved in 1 ml water: methanol (95:5, v/v). The C-18 columns (Bound-Elut, Amersham, Bucks, U.K.) were conditioned by passing consecutively 10 ml methanol, 10 ml water and 10 ml methanol/water (5:95, v/v). The extracts solubilized in water:methanol (95:5, v/v) were then deposited on the C-18 columns. After washing the columns with 2 ml water:methanol (95:5, v/v) and 5 ml methanol:water (50:50, v/v), 5 ml methanol:water (85:15, v/v) were added to eluate the non-conjugated steroids.
Chromatography on Sephadex LH-20 columns (Pharmacia, Uppsala, Sweden) was performed as previously described (Bélanger et al., 1988). In brief, steroids were solubilized in 1 ml isooctane/toluene/methanol (90:5:5, v:v:v) and deposited on the LH-20 columns. Fractions were collected and, after evaporation of the organic solvent, the concentration of the various steroids was determined by radioimmunoassay as previously described (Bélanger et al., 1980; Bélanger et al., 1988; Bélanger et al., 1990)
Radioimmunoassay data were analyzed using a program based on model II of Rodbard and Lewald (Rodbard, 1974). Plasma steroid levels are shown as the means±SEM of duplicate determinations of individual samples.

[5] = tested on: orchiectomized rats; assay: Ventral prostate and seminal vesicle weight in orchiectomized rats, percutaneous administration; type: in vivo, rat
Procedure: as §1, §1, §2, §3, §4

[6] = tested on: mRNAs encoding the C1 and C3 components of prostatic binding protein; assay: PBP-C1 and PBP-C3 mRNA in the ventral prostate of orchiectomized rats, percutaneous administration; type: in vivo, rat; settings: ORCH rats, depending on dosage
Procedure: as §1, §1, §2
The animals were randomly divided into the indicated groups (8 and 10 rats per group for subcutaneous and topical administration, respectively). […]
Radioimmunoassay data were analyzed using a program based on model II of Rodbard and Lewald (Rodbard, 1974). […] In situ hybridization data were obtained as follows: for each prostatic tissue section, 20 randomly selected areas measuring 0.25 mm^2 (excluding acinar lumen) were analyzed using an Image Research Analysis System (Amersham, Arlington Heights, Ill.) and the mean optical density value for each section was calculated. Data are shown as the means±SEM of 20 readings from 6-8 prostatic sections originating from ventral 3 prostates. Statistical significance was measured according to the multiple range test of Duncan-Kramer (Kramer, 1956).

[7] = tested on: ovariectomized rats; assay: Serum LH concentration in ovariectomized rats, percutaneous administration; type: in vivo, rat; settings: OVX rats
Procedure: as §5, §2, §3, §4
Serum LH was measured by double-antibody radioimmunoassay using rat hormones (LH-I-6 for iodination; LH-RP-2 as standard), and the rabbit antisera anti-r-LH-S-8, generously supplied by the National Pituitary Program, Baltimore, USA.
Radioimmunoassay data were analyzed using a program based on model II of Rodbard and Lewald (Rodbard, 1974). Plasma steroid levels are shown as the means±SEM of duplicate determinations of individual samples. In situ hybridization data were obtained as follows: for each prostatic tissue section, 20 randomly selected areas measuring 0.25 mm^2 (excluding acinar lumen) were analyzed using an Image Research Analysis System (Amersham, Arlington Heights, Ill.) and the mean optical density value for each section was calculated. Data are shown as the means±SEM of 20 readings from 6-8 prostatic sections originating from ventral 3 prostates. Statistical significance was measured according to the multiple range test of Duncan-Kramer (Kramer, 1956).

[8] = tested on: MCF-7 cells; settings: cited from earlier work
[9] = tested on: human mammary tumor ZR-75-1 cells; settings: concentrations within range of plasma levels in adult women; cited from earlier work

Row | SMILES | ED50, dose giving half-maximal reversal of the effect of orchiectomy on prostate weight [1] [mg] | half-maximal reversal of the effect of orchiectomy on seminal vesicle weight (dose) [1] [mg] | ED50 of maximal effect on prostate weight [1] [mg] | effect on uterine weight ([2]; 10 mg and 30 mg doses) | maximal reversal of the inhibitory effect of ovariectomy on uterine weight [2] [%] | effect on uterine weight ([2]; 1 and 3 mg doses) | dose giving half-maximal stimulation of uterine weight [3] [mg] | serum levels of 5-DIOL, 5-DIOL versus DHEA ([4]; percutaneous, OVX rats) | inhibition of serum LH below the value in intact control animals ([7]; 30 mg dose) | inhibition of serum LH below the value in intact control animals ([7]; 100 mg dose) [%] | further results
1 | C[C@]12CC[C@H](O)CC1=CC[C@@H]1[C@@H]2CC[C@]2(C)C(=O)CC[C@@H]12 [DHEA, dehydroepiandrosterone] | 1 | ~2.5 | 2.5 | comparable stimulation | 42 | no significant effect | ~2.5 | no significant difference | approximately 35% | ~70 | effect on uterine weight ([3]; 0.3 mg): no significant effect; concentration at 12 h ([4]; 3 mg): 1.74 ± 0.3 nM; concentration at 12 h ([4]; 30 mg): 12.9 ± 3.69 nM; concentration at 12 h ([4]; 100 mg): 39.2 ± 6.5 nM; reversal of the inhibitory effect of orchiectomy on ventral prostate weight ([5]; 10 mg dose, percutaneous): about 75%; androgenic activity of DHEA relative to 5-DIOL where equivalent estrogenic effects are provided ([5]; percutaneous administration): two to three times more androgenic activity; potency of DHEA relative to 5-DIOL in increasing seminal vesicle weight ([5]; percutaneous, ORCH rats): 1 fold; stimulation of PBP-C1 and PBP-C3 mRNA levels by DHEA relative to 5-DIOL [6]: two to five times the effect; also recorded: two to five times more potent; inhibitory effect on serum LH ([7]; 10 mg dose): 61%
2 | C[C@]12CC[C@H]3[C@@H](CC=C4C[C@@H](O)CC[C@@]43C)[C@@H]1CC[C@@H]2O [5-DIOL, androst-5-ene-3β,17β-diol] | 1 | ~1.2 | 1.2 | comparable stimulation | 52 | no significant effect | 0.5 | no significant difference | approximately 35% | ~70 | estrogen-dependent synthesis of the 52 kDa glycoprotein [8]: increases; cell proliferation [9]: enhances cell proliferation; progesterone receptor levels [9]: enhances; reversal of the effect of 1-week ovariectomy on uterine weight ([3]; 0.3 mg): 90%; serum DHEA level ([4]; 3, 10, 30 and 100 mg dosages, percutaneous, OVX rats): relatively constant but low level; levels of serum DHT ([4]; across the dosage range, percutaneous, OVX rats): substantially constant and relatively low; serum levels of 5-DIOL compared with the other steroid ([4]; lower doses, 1 and 3 mg, percutaneous, OVX rats): higher levels; reversal of the effect of castration on ventral prostate weight ([5]; 15 mg dose, percutaneous): 50%; serum LH ([7]; 10 mg dose): 0.86 ± 0.17 ng/mL
